The record followed here is patent US20250270170A1, “2,3-DIMETHOXY-5-METHYL-1,4-BENZOQUINONE ALKYL ALCOHOL DERIVATIVE AND USE THEREOF” (BEIJING ANJIANXI BIO-MEDICAL TECHNOLOGY CO., LTD., priority 2021, published 2025).

For data set [1], the system named is ICR mice. Briefly: Example 5: acute toxicity, single gavage administration. The format is in vivo. As to the method:
(§1) Preparation of the administration formulation of the test sample: A mixture of the compound of formula (I) and ethanol/ethyl acetate (v/v, 1/3) with a ratio of 1:1.5 was dissolved by sonication at room temperature. 2.25 equivalents of compound of formula (I) of PVP were added, and the mixture was stirred vigorously at room temperature for 20 minutes. Then, 2 equivalents of the compound of formula (I) of lactose were added, and the mixture was stirred vigorously at room temperature for 20 minutes. The mixture was dried in an oven at 50° C. and then pulverized to give a yellow powder formulation of the compound of formula (I). Then, an appropriate amount of the formulation of compound of formula (I) was weighed, and an appropriate volume of 0.5% CMC-Na aqueous solution was added. The mixture was vortexed and sonicated to mix evenly (if necessary, shear emulsification may be performed), to give an administration formulation of the test sample. The administration formulation was prepared twice a week, and 3 or 4 days of dosage was prepared each time, which was divided and stored in a 0-8° C. refrigerator for later use. When the test sample was used, a final volume mark was marked on a container, and a required amount of the test sample was weighed (weighing weight of the test sample=theoretical dosage*conversion factor) into a clean and dry container. An appropriate amount of solvent was firstly added, and the mixture was stirred and mixed thoroughly, and sonicated if necessary. The solvent was further added to the final volume mark to dilute and mix evenly, to give a visually uniform formulation. […] The administration formulation of the test sample was stable within 24 hours when being stored airtightly at room temperature in dark, and was stable within 8 days when being stored airtightly at 2° C. to 8° C. in dark.
(§2) • Species: ICR mice • Grade: SPF grade
(§3) Number and gender of the animals being used: 40, half male and half female;
(§4) Body weight: The body weight of the female group was from 25.9 to 29.7 g; the body weight of the male group was from 27.7 to 30.8 g;
(§5) Age at the time of administration: 38 to 44 days (female), 31 to 44 days (male)
(§6) Route of Administration: Gavage Administration
(§7) Administration frequency: once/day
(§8) Administration period: 1 day
(§9) The dosage was calculated based on the body weight of the animals weighed on D1 after fasting (with water access) overnight. The feed was given approximately 2 hours after drug administration.
(§10) The administration formulation in each group was stirred at room temperature for at least 10 minutes, and suspended uniformly with visual inspection before the administration. The administration formulation was required to be continually stirred during the administration.
(§11) Observation indicators: observation of general physical signs, body weight, food intake, animal anatomy and histopathological examination were included.

Assay in data set [2]: as above
Type of data set: in vivo, ICR mice. The settings on record: both sexes, mouse, in vivo, po, ICR mice, single gavage administration. The protocol: as §1, §2, §3, §4, §5, §6, §7, §8, §9, §10, §11

The test system of data set [3] is A549 cells. The experiment in a line: Flow cytometry for apoptosis detection (Annexin V-FITC/PI), A549. As to conditions: 72 h. The format is cell-based, human. As to the method: (1) Cells were inoculated in a 6-well plate. When the cell growth density was appropriate, four concentrations (0 μM, 10 μM, 30 μM, and 90 μM) of the compound of formula (I) were added, and placed in an incubator at 37° C. with 5% CO2 to continue culturing for 72 hours.
(2) After reaching the designated time point, the cell culture plate was taken out from the incubator, and placed in a biological safety cabinet. A 4 ml centrifuge tube was taken and marked. The supernatant in the 6-well plate was pipetted out and added to the corresponding 4 ml centrifuge tube. The cells were gently washed with PBS, and the PBS was added to the corresponding centrifuge tube. An appropriate amount of trypsin was added to each well to digest the cells. When the cells were digested to a moderate degree, the liquid in the centrifuge tube was added to the corresponding well. The cells were gently pipetted with a pipette to disperse the cells, and was pipetted back into the original centrifuge tube. The tube was immediately centrifuged at 1500 rpm for 5 minutes. Then, the supernatant was discarded and the precipitate was retained.
(3) 2 ml of PBS was added to the centrifuge tube, which was centrifuged again at 1000 rpm for 5 minutes. The supernatant was discarded. This step was repeated again.
(4) The cells were suspended with 1× Binding buffer, and the cell concentration was adjusted to approximately 1×10^6 cells/ml. 100 μl of cell suspension was added to the flow cytometry tube, and 5 μl of PI and 5 μl of Annexin V-FITC were added to each tube. The cells were gently vortexed, and incubated at room temperature in dark for 15 min.
(5) 400 μl of 1× Binding buffer was further added to each tube, and the detection was performed on the flow cytometer (the detection was in need to be completed within 1 hour).
We used AnnexinV-FITC and PI double staining method for apoptosis staining. FL1 channel was selected for FITC, and FL2 channel was selected for PI. Flow cytometry analysis was used to detect cell apoptosis. Q1, Q2, Q3, and Q4 represented dead cells, late apoptotic cells, early apoptotic cells, and normal cells, respectively (FIG. 7). After treating A549 and NCI-H460 cells with the compound of formula (I) at different concentrations (0 μM, 10 μM, 30 μM, and 90 μM) for 72 h, the flow cytometry results are as follows. Table 1 and Table 2 show the proportions of dead cells, late apoptotic cells, early apoptotic cells, and normal cells after treating the A549 and NCI-H460 cells with different concentrations of the compound of formula (I), respectively.

Where only a bound is given, the exact number is not on record here.

For orientation: LD50 means the dose at which mortality reaches 50%. A high value points to a less toxic substance. A word on the MTD: it is the highest dose tested that stayed within the study's limit of toxicity. Regarding `COC1=C(OC)C(=O)C(CCCCCCCCCCOC(=O)Cc2c(C)n(C(=O)c3ccc(Cl)cc3)c3ccc(OC)cc23)=C(C)C1=O` [compound of formula (I)], the “clinical observation (general physical signs)” value in data set [1] (300 mg/kg/d single gavage) is listed as “no obvious abnormal symptoms”; in data set [1] (1000 mg/kg/d single gavage, animals other than the dead one) it was “No obvious abnormal symptoms”; in data set [1] (3000 mg/kg/d single gavage, return to normal on D8) it was “piloerection symptoms from D2 to D7”. The “body weight of male animals” value in data set [1] (3000 mg/kg/d single gavage, D3, vs vehicle control (P<0.05)) is recorded as “significant decrease”. Further, the food intake entry in data set [1] (each dosage group (300, 1000, 3000 mg/kg/d) vs vehicle control) is reported as “basically consistent”. Further, in data set [1] (each group, naked eye observation of organs and tissues), the gross anatomy examination result was “No obvious abnormalities”. For the same compound, the LD50 at 1 day in data set [2] is above 3000 mg/kg. Moreover, the maximum tolerated dose (MTD) at 1 day in data set [2] (read-out: maximum tolerated dose (MTD)) was 300 mg/kg/day. Also, the entries for the “Q1 Gated % (dead cells)” value in data set [3] (10 μM), in data set [3] (30 μM) and in data set [3] (90 μM) were 1.07 ± 0.51%, 1.34 ± 0.19% and 0.31 ± 0.14%, respectively. Besides, the “Q2 Gated % (late apoptotic cells)” value stood at 2.57 ± 0.48% in data set [3] (10 μM), 3.08 ± 0.16% in data set [3] (30 μM) and 20.9 ± 3.39% in data set [3] (90 μM). Further, the “Q3 Gated % (early apoptotic cells)” value in data set [3] (10 μM) was found to be 1.86 ± 0.37%; in data set [3] (30 μM), 2.58 ± 1.38%; in data set [3] (90 μM), 50.4 ± 1.41%. The entries for the “Q4 Gated % (normal cells)” value in data set [3] (10 μM), in data set [3] (30 μM) and in data set [3] (90 μM) were 94.5 ± 0.57%, 93.05 ± 1.34% and 28.4 ± 4.67%, respectively. For the same compound, the “percentage of apoptosis (total apoptosis)” value in data set [3] (10 μM) came to 4.43 ± 0.11; in data set [3] (30 μM), 5.65 ± 1.54; in data set [3] (90 μM), 71.3 ± 4.81.
